How the values were obtained:
[1] = target: Adenosylhomocysteinase (Oryctolagus cuniculus); assay: Inhibition of S-adenosyl-homocysteine (AdoHcy)hydrolase from rabbit erythrocytes
[2] = target: Adenosylhomocysteinase (Oryctolagus cuniculus); assay: as above; remark: listed apart in the source

Nc1ncnc2c1ncn2C1C(O)C(O)C(CO)C1O (configuration not stated)
IC50 [1]: 28 µM

Nc1ncnc2c1ncn2[C@@H](C=O)O[C@@H](C=O)CO [Adenosine dialdehyde]
IC50 [2]: 0.04 µM

— BindingDB's records for doi:10.1021/jm00117a021 (Syntex Research, 1988)
